# According to US20260347337A1, “MICROBIOCIDAL PYRAZOLE DERIVATIVES” (priority 2022, published 2026):
# Assays:
# [1] = tested on: Mycosphaerella graminicola (Septoria tritici); assay: Mycosphaerella graminicola (Septoria tritici)/liquid culture (Septoria blotch), inhibition of growth; assay type: cell-based; conditions: Zymoseptoria tritici, liquid culture, PDB, 24° C., 4-5 days after application, read-out: control of Mycosphaerella graminicola (inhibition of growth vs untreated)
# Protocol: Example B12: Mycosphaerella graminicola (Septoria tritici)/Liquid Culture (Septoria Blotch)
# (§1) Conidia of the fungus from cryogenic storage are directly mixed into nutrient broth (PDB potato dextrose broth). After placing a (DMSO) solution of test compound into a microtiter plate (96-well format), the nutrient broth containing the fungal spores is added. The test plates are incubated at 24° C. and the inhibition of growth is determined photometrically 4-5 days after application.
# [2] = tested on: Botryotinia fuckeliana (Botrytis cinerea); assay: Botryotinia fuckeliana (Botrytis cinerea)/liquid culture (gray mould), inhibition of growth; assay type: cell-based; conditions: liquid culture, Vogels broth, 24° C., 3-4 days after application, read-out: control of Botryotinia fuckeliana (inhibition of growth vs untreated)
# Protocol: Example B2: Botryotinia fuckeliana (Botrytis cinerea)/Liquid Culture (Gray Mould)
# as §1, with “(Vogels” for “(PDB potato dextrose”, “3-4” for “4-5”
# [3] = tested on: Mycosphaerella arachidis (Cercospora arachidicola); assay: Mycosphaerella arachidis (Cercospora arachidicola)/liquid culture (early leaf spot), inhibition of growth; assay type: cell-based; conditions: liquid culture, PDB, 24° C., 4-5 days after application, read-out: control of Mycosphaerella arachidis (inhibition of growth vs untreated)
# Protocol: Example B9: Mycosphaerella arachidis (Cercospora arachidicola)/Liquid Culture (Early Leaf Spot)
# as §1
# [4] = tested on: Phaeosphaeria nodorum (Septoria nodorum); assay: Phaeosphaeria nodorum (Septoria nodorum)/wheat/leaf disc preventative (glume blotch); assay type: in vivo; conditions: 200 ppm, wheat leaf segments cv. Kanzler, inoculated 2 days after application, assessed 5-7 days after application
# Protocol: Example B7: Phaeosphaeria nodorum (Septoria nodorum)/Wheat/Leaf Disc Preventative (Glume Blotch)
# (§2) Wheat leaf segments cv. Kanzler are placed on agar in a multiwell plate (24-well format) and sprayed with the formulated test compound diluted in water. The leaf disks are inoculated with a spore suspension of the fungus 2 days after application. The inoculated test leaf disks are incubated at 20° C. and 75% rh under a light regime of 12 h light/12 h darkness in a climate cabinet and the activity of a compound is assessed as percent disease control compared to untreated when an appropriate level of disease damage appears in untreated check leaf disks (5-7 days after application).
# [5] = tested on: Monographella nivalis (Microdochium nivale); assay: Monographella nivalis (Microdochium nivale)/liquid culture (foot rot cereals), inhibition of growth; assay type: cell-based; conditions: liquid culture, PDB, 24° C., 4-5 days after application, read-out: control of Monographella nivalis (inhibition of growth vs untreated)
# Protocol: Example B8: Monographella nivalis (Microdochium nivale)/Liquid Culture (Foot Rot Cereals)
# as §1
# [6] = tested on: Pyrenophora teres; assay: Pyrenophora teres/barley/leaf disc preventative (net blotch); assay type: in vivo; conditions: 200 ppm, barley leaf segments cv. Hasso, inoculated 2 days after application, assessed 5-7 days after application
# Protocol: Example B10: Pyrenophora teres/Barley/Leaf Disc Preventative (Net Blotch)
# as §2, with “Barley” for “Wheat”, “Hasso” for “Kanzler”, “segments” for “disks”, “inoculated” for “inoculated test”, “65%” for “75%”, “as” for “as percent”
# [7] = tested on: Alternaria solani; assay: Alternaria solani/tomato/leaf disc (early blight); assay type: in vivo; conditions: 200 ppm; tomato leaf disks cv. Baby; inoculated 2 days after application; assessed 5-7 days after application
# Protocol: Example B1: Alternaria solani/Tomato/Leaf Disc (Early Blight)
# Tomato leaf disks cv. Baby are placed on agar in multiwell plates (24-well format) and sprayed with the formulated test compound diluted in water. The leaf disks are inoculated with a spore suspension of the fungus 2 days after application. The inoculated leaf disks are incubated at 23° C./21° C. (day/night) and 80% rh under a light regime of 12/12 h (light/dark) in a climate cabinet and the activity of a compound is assessed as percent disease control compared to untreated when an appropriate level of disease damage appears on untreated check disk leaf disks (5-7 days after application).
# [8] = tested on: Glomerella lagenarium (Colletotrichum lagenarium); assay: Glomerella lagenarium (Colletotrichum lagenarium)/liquid culture (anthracnose), inhibition of growth; assay type: cell-based; conditions: Colletotrichum orbiculare, liquid culture, PDB, 24° C., 3-4 days after application, read-out: control of Glomerella lagenarium (inhibition of growth vs untreated)
# Protocol: Example B3: Glomerella lagenarium (Colletotrichum lagenarium)/Liquid Culture (Anthracnose)
# as §1, with “measured” for “determined”, “3-4” for “4-5”
# [9] = tested on: Blumeria graminis f. sp. tritici (Erysiphe graminis f. sp. tritici); assay: Blumeria graminis f. sp. tritici/wheat/leaf disc preventative (powdery mildew on wheat); assay type: in vivo; conditions: 200 ppm, wheat leaf segments cv. Kanzler, inoculated 1 day after application, assessed 6-8 days after application
# Protocol: Example B4: Blumeria graminis f. Sp. Tritici (Erysiphe graminis f. Sp. Tritici)/Wheat/Leaf Disc Preventative (Powdery Mildew on Wheat)
# Wheat leaf segments cv. Kanzler are placed on agar in a multiwell plate (24-well format) and sprayed with the formulated test compound diluted in water. The leaf disks are inoculated by shaking powdery mildew infected plants above the test plates 1 day after application. The inoculated leaf disks are incubated at 20° C. and 60% rh under a light regime of 24 h darkness followed by 12 h light/12 h darkness in a climate chamber and the activity of a compound is assessed as percent disease control compared to untreated when an appropriate level of disease damage appears on untreated check leaf segments (6-8 days after application).
# [10] = tested on: Fusarium culmorum; assay: microbe, parasite or virus in culture; assay type: cell-based; conditions: read-out: control of Fusarium culmorum (inhibition of growth vs untreated)
# [11] = tested on: Plasmopara viticola; assay type: in vivo; conditions: 200 ppm; grape vine leaf disks; preventative, inoculated 1 day after application; assessed 6-8 days after application
# [12] = tested on: Phytophthora infestans; assay type: in vivo; conditions: 200 ppm; tomato leaf disks; preventative, inoculated 1 day after application; assessed 5-7 days after application
# [13] = tested on: Sclerotinia sclerotiorum; assay: Sclerotinia sclerotiorum/liquid culture (cottony rot), inhibition of growth; assay type: cell-based; conditions: liquid culture (mycelia fragments), PDB, 24° C., 3-4 days after application, read-out: control of Sclerotinia sclerotiorum (inhibition of growth vs untreated)
# Protocol: Example B11: Sclerotinia sclerotiorum/Liquid Culture (Cottony Rot)
# as §1, with “Mycelia fragments of a newly grown liquid culture” for “Conidia”, “fungus” for “fungus from cryogenic storage”, “format)” for “format),”, “material” for “spores”, “3-4” for “4-5”
# [14] = tested on: Fusarium culmorum; assay type: in vivo; conditions: 200 ppm; wheat spikelets cv. Monsun; preventative, inoculated 1 day after application; assessed 6-8 days after application
# [15] = tested on: Gibberella zeae (Fusarium graminearum); assay type: in vivo; conditions: 200 ppm; wheat spikelets cv. Monsun; preventative, inoculated 1 day after application; assessed 6-8 days after application
SMILES,inhibition of growth at 20 ppm [1],inhibition of growth at 20 ppm [2],inhibition of growth at 20 ppm [3],control of Phaeosphaeria nodorum (percent disease control compared to untreated) [4],inhibition of growth at 20 ppm [5],control of Pyrenophora teres (disease control compared to untreated) [6],control of Alternaria solani (percent disease control compared to untreated) [7],inhibition of growth at 20 ppm [8],control of Blumeria graminis f. sp. tritici (percent disease control compared to untreated) [9],inhibition of growth at 20 ppm [10],control of Plasmopara viticola (percent disease control compared to untreated) [11],control of Phytophthora infestans (percent disease control compared to untreated) [12],inhibition of growth at 20 ppm [13],control of Fusarium culmorum (percent disease control compared to untreated) [14],control of Gibberella zeae (percent disease control compared to untreated) [15]
"Cn1cc(C(C)(CNC(=O)c2cn(-c3ccc(F)cc3F)nn2)c2cccc(Cl)n2)cn1 (stereo not shown) [Compound P-1, N-[2-(6-chloro-2-pyridyl)-2-(1-methylpyrazol-4-yl)propyl]-1-(2,4-difluorophenyl)triazole-4-carboxamide]",≥ 80%,≥ 80%,≥ 80%,at least 80%,≥ 80%,at least 80%,at least 80%,≥ 80%,at least 80%,≥ 80%,at least 80%,,,,
"Cn1cc(C(C)(CNC(=O)c2cnn(-c3ccc(F)cc3F)n2)c2cccc(C#N)n2)cn1 (stereo not shown) [Compound P-2, N-[2-(6-cyano-2-pyridyl)-2-(1-methylpyrazol-4-yl)propyl]-2-(2,4-difluorophenyl)triazole-4-carboxamide]",,,,,,,,,at least 80%,,at least 80%,at least 80%,,,
"Cn1cc(C(C)(CNC(=O)c2cnn(-c3ccc(F)cc3F)n2)c2cccc(Cl)n2)cn1 (stereo not shown) [Compound P-3, N-[2-(6-chloro-2-pyridyl)-2-(1-methylpyrazol-4-yl)propyl]-2-(2,4-difluorophenyl)triazole-4-carboxamide]",,,,,,at least 80%,at least 80%,,,,,,,,
"Cn1cc(C(C)(CNC(=O)c2nnn(-c3ccc(F)cc3F)n2)c2cccc(C#N)n2)cn1 (stereo not shown) [Compound P-5, N-[2-(6-cyano-2-pyridyl)-2-(1-methylpyrazol-4-yl)propyl]-2-(2,4-difluorophenyl)tetrazole-5-carboxamide]",≥ 80%,≥ 80%,≥ 80%,at least 80%,≥ 80%,at least 80%,at least 80%,≥ 80%,at least 80%,,,,≥ 80%,,
"Cn1cc(C(C)(CNC(=O)c2nnn(-c3ccc(F)cc3F)n2)c2cccc(Cl)n2)cn1 (stereo not shown) [Compound P-6, N-[2-(6-chloro-2-pyridyl)-2-(1-methylpyrazol-4-yl)propyl]-2-(2,4-difluorophenyl)tetrazole-5-carboxamide]",≥ 80%,≥ 80%,≥ 80%,at least 80%,≥ 80%,at least 80%,at least 80%,≥ 80%,at least 80%,≥ 80%,,,≥ 80%,at least 80%,
"Cn1cc(C(C)(CNC(=O)c2cn(-c3ncc(F)cc3F)nn2)c2cccc(Cl)n2)cn1 (stereo not shown) [Compound P-7, N-[2-(6-chloro-2-pyridyl)-2-(1-methylpyrazol-4-yl)propyl]-1-(3,5-difluoro-2-pyridyl)triazole-4-carboxamide]",≥ 80%,≥ 80%,≥ 80%,at least 80%,≥ 80%,at least 80%,at least 80%,≥ 80%,at least 80%,≥ 80%,,,,,at least 80%
"Cn1cc(C(C)(CNC(=O)c2cn(-c3ccc(F)cc3F)nn2)c2cccc(Br)n2)cn1 (stereo not shown) [Compound P-8, N-[2-(6-bromo-2-pyridyl)-2-(1-methylpyrazol-4-yl)propyl]-1-(2,4-difluorophenyl)triazole-4-carboxamide]",≥ 80%,≥ 80%,≥ 80%,at least 80%,≥ 80%,at least 80%,at least 80%,≥ 80%,at least 80%,≥ 80%,,,,,
"Cn1cc(C(C)(CNC(=O)c2cn(-c3ccc(F)cc3F)nn2)c2cccc(C#N)n2)cn1 (stereo not shown) [Compound P-9, N-[2-(6-cyano-2-pyridyl)-2-(1-methylpyrazol-4-yl)propyl]-1-(2,4-difluorophenyl)triazole-4-carboxamide]",≥ 80%,,,at least 80%,≥ 80%,at least 80%,,,at least 80%,,,,,,
